MIC data for one compound are collected here from ChEMBL document CHEMBL1649254, “A Ser29Leu substitution in the cytosine deaminase Fca1p is responsible for clade-specific flucytosine resistance in Candida dubliniensis” (2009).

Assay type in all cases: functional
For experiment [1], the system named is Candida dubliniensis. Briefly: […] activity against Candida dubliniensis isolate SA101 of Cd25 fingerprint group 1 and ITS genotype 1 by CLSI M27-A2 method.
The subject of experiment [2] is Candida dubliniensis. The experiment can be described thus: […] activity against Candida dubliniensis isolate SA109 of Cd25 fingerprint group 3 and ITS genotype 3 by CLSI M27-A2 method.
Experiment [3] has as its system Candida dubliniensis. Briefly: […] activity against Candida dubliniensis isolate p7276 of Cd25 fingerprint group 2 and ITS genotype 3 by CLSI M27-A2 method.
For experiment [4], the system named is Candida dubliniensis. Briefly: […] activity against Candida dubliniensis isolate CD36b of Cd25 fingerprint group 1 and ITS genotype 1 by CLSI M27-A2 method.
In experiment [5] the test system is Candida dubliniensis. Briefly: […] activity against Candida dubliniensis isolate Eg201 of Cd25 fingerprint group 3 and ITS genotype 4 by CLSI M27-A2 method.
The test system of experiment [6] is Candida dubliniensis. Briefly: […] activity against Candida dubliniensis isolate SA118 of Cd25 fingerprint group 3 and ITS genotype 3 by CLSI M27-A2 method.
Experiment [7] relates to Candida dubliniensis. Briefly: […] activity against Candida dubliniensis isolate Eg207 of Cd25 fingerprint group 3 and ITS genotype 4 by CLSI M27-A2 method.
For experiment [8], the system named is Candida dubliniensis. Briefly: […] activity against Candida dubliniensis isolate SA100 of Cd25 fingerprint group 3 and ITS genotype 3 by CLSI M27-A2 method.
Experiment [9] deals with Candida dubliniensis. Briefly: […] activity against Candida dubliniensis isolate p6785 of Cd25 fingerprint group 2 and ITS genotype 3 by CLSI M27-A2 method.
Experiment [10] deals with Candida dubliniensis. Briefly: […] activity against Candida dubliniensis isolate Eg200 of Cd25 fingerprint group 3 and ITS genotype 4 by CLSI M27-A2 method.
The subject of experiment [11] is Candida dubliniensis. The experiment can be described thus: […] activity against Candida dubliniensis isolate Eg206 of Cd25 fingerprint group 1 and ITS genotype 1 by CLSI M27-A2 method.
The subject of experiment [12] is Candida dubliniensis. The experiment can be described thus: […] activity against Candida dubliniensis isolate SA108 of Cd25 fingerprint group 3 and ITS genotype 3 by CLSI M27-A2 method.
The subject of experiment [13] is Candida dubliniensis. The experiment can be described thus: […] activity against Candida dubliniensis isolate SA113 of Cd25 fingerprint group 3 and ITS genotype 4 by CLSI M27-A2 method.
Experiment [14] deals with Candida dubliniensis. The experiment can be described thus: […] activity against Candida dubliniensis isolate SA115 of Cd25 fingerprint group 1 and ITS genotype 1 by CLSI M27-A2 method.
Experiment [15] relates to Candida dubliniensis. Briefly: […] activity against Candida dubliniensis isolate p7718 of Cd25 fingerprint group 3 and ITS genotype 4 by CLSI M27-A2 method.
Experiment [16] has as its system Candida dubliniensis. Briefly: […] activity against Candida dubliniensis isolate Eg203 of Cd25 fingerprint group 1 and ITS genotype 1 by CLSI M27-A2 method.
The test system of experiment [17] is Candida dubliniensis. The experiment can be described thus: […] activity against Candida dubliniensis isolate SA121 of Cd25 fingerprint group 3 and ITS genotype 4 by CLSI M27-A2 method.
The subject of experiment [18] is Candida dubliniensis. The experiment can be described thus: […] activity against Candida dubliniensis isolate SA107 of Cd25 fingerprint group 3 and ITS genotype 3 by CLSI M27-A2 method.
Experiment [19] has as its system Candida dubliniensis. The experiment can be described thus: […] activity against Candida dubliniensis isolate SA105 of Cd25 fingerprint group 1 and ITS genotype 1 by CLSI M27-A2 method.
The test system of experiment [20] is Candida dubliniensis. The experiment can be described thus: […] activity against Candida dubliniensis isolate Eg202 of Cd25 fingerprint group 3 and ITS genotype 4 by CLSI M27-A2 method.
The subject of experiment [21] is Candida dubliniensis. The experiment can be described thus: […] activity against Candida dubliniensis isolate SA103 of Cd25 fingerprint group 3 and ITS genotype 3 by CLSI M27-A2 method.

Values after ≈ are worked out from the molar mass of the structure shown.

Usually MIC stands for the lowest concentration found to suppress growth. Read a low MIC as a more susceptible organism. On to `O=c1[nH]cc(F)c(=O)[nH]1` [FLUOROURACIL], for which the MIC was determined as 16 µg/mL (≈ 123 µM) against Candida dubliniensis [1]; 8 µg/mL (≈ 61.5 µM) in the experiment with Candida dubliniensis [2]; 8 µg/mL (≈ 61.5 µM) against Candida dubliniensis [3]; 32 µg/mL (≈ 246 µM) against Candida dubliniensis [4]; 32 µg/mL (≈ 246 µM) in the experiment with Candida dubliniensis [5]; 32 µg/mL (≈ 246 µM) in the experiment on Candida dubliniensis [6]. The MIC stood at 32 µg/mL (≈ 246 µM) against Candida dubliniensis [7]; 32 µg/mL (≈ 246 µM) in the experiment on Candida dubliniensis [8]; 16 µg/mL (≈ 123 µM) in the experiment on Candida dubliniensis [9]; 8 µg/mL (≈ 61.5 µM) in the experiment with Candida dubliniensis [10]; 32 µg/mL (≈ 246 µM) against Candida dubliniensis [11]; 32 µg/mL (≈ 246 µM) in the experiment with Candida dubliniensis [12]. Further, the MIC was determined as 32 µg/mL (≈ 246 µM) with Candida dubliniensis [13]; 32 µg/mL (≈ 246 µM) in the experiment on Candida dubliniensis [14]; 16 µg/mL (≈ 123 µM) in the experiment with Candida dubliniensis [15]; 16 µg/mL (≈ 123 µM) against Candida dubliniensis [16]; 32 µg/mL (≈ 246 µM) with Candida dubliniensis [17]; 32 µg/mL (≈ 246 µM) against Candida dubliniensis [18]. The MIC with Candida dubliniensis [19], with Candida dubliniensis [20] and in the experiment on Candida dubliniensis [21] was 32 µg/mL (≈ 246 µM) throughout.
